Data on 32 compounds can be found in patent publication US20230019236A1, “PROTEIN TYROSINE PHOSPHATASE INHIBITORS AND METHODS OF USE THEREOF” (Calico Life Sciences LLC, priority 2019, published 2023).

pIC50: −log10 of the molar value.

For orientation: pIC50 means −log10 of the IC50, conventionally taken in molar units.

In this assay the target is T1, His tagged full-length PTP1B protein (Homo sapiens, UniProt P18031).
T1 construct: made in house
T1 sequence (P18031 with tags, fused parts or gaps): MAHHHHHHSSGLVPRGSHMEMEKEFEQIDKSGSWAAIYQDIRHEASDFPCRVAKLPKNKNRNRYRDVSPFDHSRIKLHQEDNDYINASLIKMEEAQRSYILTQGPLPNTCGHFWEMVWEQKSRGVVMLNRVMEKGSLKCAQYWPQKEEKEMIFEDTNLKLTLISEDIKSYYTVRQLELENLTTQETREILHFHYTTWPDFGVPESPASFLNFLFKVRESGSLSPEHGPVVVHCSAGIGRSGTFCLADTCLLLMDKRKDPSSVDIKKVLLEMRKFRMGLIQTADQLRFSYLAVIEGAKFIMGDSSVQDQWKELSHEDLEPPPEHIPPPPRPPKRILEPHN
Description: Mobility Shift Assay (MSA) used to determine potency of PTP1B inhibitors. As to conditions: Table 2. The format is biochemical. The protocol: The enzymatic assay used to determine activity is a mobility shift assay using a LabChip EZ Reader by Caliper Life Sciences. The enzymatic reaction was carried out in assay buffer (50 mM HEPES pH 7.5, 1 mM EGTA, 10 mM EDTA, 0.01% Tween® 20, and 2 mM DTT). […] The enzyme (at 0.5 nM) was incubated with compound for 10 minutes at room temperature. […] The % inhibition was then used to calculate the IC50 values.
Regarding `Nc1ccccc1CS(=O)(=O)N1CC=C(c2ccc3cc(O)c(N4CC(=O)NS4(=O)=O)c(F)c3c2)C1` [Compound 195, 5-(7-{1-[(2-aminophenyl)methanesulfonyl]-2,5-dihydro-1H-pyrrol-3-yl}-1-fluoro-3-hydroxynaphthalen-2-yl)-1λ^6,2,5-thiadiazolidine-1,1,3-trione], the pIC50 was 8.00 to 9.00.
For `O=C1CN(c2c(O)cc3ccc(OCC(F)(F)F)cc3c2F)S(=O)(=O)N1` [Compound 197, 5-[1-fluoro-3-hydroxy-7-(2,2,2-trifluoroethoxy)naphthalen-2-yl]-1λ^6,2,5-thiadiazolidine-1,1,3-trione] the value was under 7.00; for `O=C1CN(c2c(O)cc3ccc(OCCF)cc3c2F)S(=O)(=O)N1` [Compound 198, 5-[1-fluoro-7-(2-fluoroethoxy)-3-hydroxynaphthalen-2-yl]-1λ^6,2,5-thiadiazolidine-1,1,3-trione], 7.00 to 8.00; for `CC(C)CCNc1ccc2cc(O)c(N3CC(=O)NS3(=O)=O)c(F)c2c1` [Compound 200, 5-{1-fluoro-3-hydroxy-7-[(3-methylbutyl)amino]naphthalen-2-yl}-1λ^6,2,5-thiadiazolidine-1,1,3-trione], over 9.00.
To `CC(C)CNc1ccc2cc(O)c(N3CC(=O)NS3(=O)=O)c(F)c2c1` [Compound 201, 5-{1-fluoro-3-hydroxy-7-[(2-methylpropyl)amino]naphthalen-2-yl}-1λ^6,2,5-thiadiazolidine-1,1,3-trione] belongs 8.00 to 9.00.
To `O=C1CN(c2c(O)cc3ccc(NCC4CC4)cc3c2F)S(=O)(=O)N1` [Compound 202, 5-{7-[(cyclopropylmethyl)amino]-1-fluoro-3-hydroxynaphthalen-2-yl}-1λ^6,2,5-thiadiazolidine-1,1,3-trione] belongs 7.00 to 8.00; to `N#CCOc1ccc2cc(O)c(N3CC(=O)NS3(=O)=O)c(F)c2c1` [Compound 203, {[8-fluoro-6-hydroxy-7-(1,1,4-trioxo-1λ^6,2,5-thiadiazolidin-2-yl)naphthalen-2-yl]oxy}acetonitrile], under 7.00.
For `CC(C)CCOc1ccc2cc(O)c(N3CC(=O)NS3(=O)=O)c(F)c2c1` [Compound 204, 5-[1-fluoro-3-hydroxy-7-(3-methylbutoxy)naphthalen-2-yl]-1λ^6,2,5-thiadiazolidine-1,1,3-trione], the pIC50 was over 9.00.
To `COc1ccc2cc(O)c(N3CC(=O)NS3(=O)=O)c(F)c2c1F` [Compound 205, 5-(1,8-difluoro-3-hydroxy-7-methoxynaphthalen-2-yl)-1λ^6,2,5-thiadiazolidine-1,1,3-trione] belongs 7.00 to 8.00; to `O=C1CN(c2c(O)cc3ccc(C4CN(S(=O)(=O)C5CC5)C4)cc3c2F)S(=O)(=O)N1` [Compound 206, 5-{7-[1-(cyclopropanesulfonyl)azetidin-3-yl]-1-fluoro-3-hydroxynaphthalen-2-yl}-1λ^6,2,5-thiadiazolidine-1,1,3-trione], 8.00 to 9.00; to `O=C1CN(c2c(O)cc3ccc(C4CN(C(=O)C5CC5)C4)cc3c2F)S(=O)(=O)N1` [Compound 207, 5-{7-[1-(cyclopropanecarbonyl)azetidin-3-yl]-1-fluoro-3-hydroxynaphthalen-2-yl}-1λ^6,2,5-thiadiazolidine-1,1,3-trione], 8.00 to 9.00.
To `N#C/C=C/c1ccc2cc(O)c(N3CC(=O)NS3(=O)=O)c(F)c2c1` [Compound 208, (2E)-3-[8-fluoro-6-hydroxy-7-(1,1,4-trioxo-1λ^6,2,5-thiadiazolidin-2-yl)naphthalen-2-yl]prop-2-enenitrile] belongs under 7.00; to `O=C1CN(c2c(O)cc3ccc(CCC4CC4)cc3c2F)S(=O)(=O)N1` [Compound 209, 5-[7-(2-cyclopropylethyl)-1-fluoro-3-hydroxynaphthalen-2-yl]-1λ^6,2,5-thiadiazolidine-1,1,3-trione], 7.00 to 8.00; to `O=C1CN(c2c(O)cc3ccc(OCCC4CC4)cc3c2F)S(=O)(=O)N1` [Compound 211, 5-[7-(2-cyclopropylethoxy)-1-fluoro-3-hydroxynaphthalen-2-yl]-1λ^6,2,5-thiadiazolidine-1,1,3-trione], over 9.00.
To `O=C1CN(c2c(O)cc3ccc(OCCOCC4CC4)cc3c2F)S(=O)(=O)N1` [Compound 212, 5-{7-[2-(cyclopropylmethoxy)ethoxy]-1-fluoro-3-hydroxynaphthalen-2-yl}-1λ^6,2,5-thiadiazolidine-1,1,3-trione] belongs 8.00 to 9.00.
As for `O=C1CN(c2c(O)cc3ccc(OCCOC4CCC4)cc3c2F)S(=O)(=O)N1` [Compound 214, 5-{7-[2-(cyclobutyloxy)ethoxy]-1-fluoro-3-hydroxynaphthalen-2-yl}-1λ^6,2,5-thiadiazolidine-1,1,3-trione], the negative-log IC50 (pIC50) was 8.00 to 9.00.
For `CC(C)OCCOc1ccc2cc(O)c(N3CC(=O)NS3(=O)=O)c(F)c2c1` [Compound 215, 5-(1-fluoro-3-hydroxy-7-{2-[(propan-2-yl)oxy]ethoxy}naphthalen-2-yl)-1λ^6,2,5-thiadiazolidine-1,1,3-trione], the pIC50 is 8.00 to 9.00.
For `CCOCCCOc1ccc2cc(O)c(N3CC(=O)NS3(=O)=O)c(F)c2c1` [Compound 216, 5-[7-(3-ethoxypropoxy)-1-fluoro-3-hydroxynaphthalen-2-yl]-1λ^6,2,5-thiadiazolidine-1,1,3-trione] the value was 8.00 to 9.00; for `CC(C)(C)OCCOc1ccc2cc(O)c(N3CC(=O)NS3(=O)=O)c(F)c2c1` [Compound 217, 5-[7-(2-tert-butoxyethoxy)-1-fluoro-3-hydroxynaphthalen-2-yl]-1λ^6,2,5-thiadiazolidine-1,1,3-trione], 8.00 to 9.00; for `CC(C)CCCc1ccc2cc(O)c(N3CC(=O)NS3(=O)=O)c(F)c2c1` [Compound 219, 5-[1-fluoro-3-hydroxy-7-(4-methylpentyl)naphthalen-2-yl]-1λ^6,2,5-thiadiazolidine-1,1,3-trione], 7.00 to 8.00.
To `O=C1CN(c2c(O)cc3ccc(OC4CC4)cc3c2F)S(=O)(=O)N1` [Compound 223, 5-[7-(cyclopropyloxy)-1-fluoro-3-hydroxynaphthalen-2-yl]-1λ^6,2,5-thiadiazolidine-1,1,3-trione] belongs 8.00 to 9.00; to `O=C1CN(c2c(O)cc3ccc(NCCC4CC4)cc3c2F)S(=O)(=O)N1` [Compound 224, 5-{7-[(2-cyclopropylethyl)amino]-1-fluoro-3-hydroxynaphthalen-2-yl}-1λ^6,2,5-thiadiazolidine-1,1,3-trione], 8.00 to 9.00; to `Cc1c[nH]c(-c2ccc3cc(O)c(N4CC(=O)NS4(=O)=O)c(F)c3c2)n1` [Compound 225, 5-[1-fluoro-3-hydroxy-7-(4-methyl-1H-imidazol-2-yl)naphthalen-2-yl]-1λ^6,2,5-thiadiazolidine-1,1,3-trione], 7.00 to 8.00.
For `O=C1CN(c2c(O)cc3ccc(C4CNC4)cc3c2F)S(=O)(=O)N1` [Compound 226, 5-[7-(azetidin-3-yl)-1-fluoro-3-hydroxynaphthalen-2-yl]-1λ^6,2,5-thiadiazolidine-1,1,3-trione] the value was 7.00 to 8.00; for `COc1ccc(-c2ccc3cc(O)c(N4CC(=O)NS4(=O)=O)c(F)c3c2)s1` [Compound 227, 5-[1-fluoro-3-hydroxy-7-(5-methoxythiophen-2-yl)naphthalen-2-yl]-1λ^6,2,5-thiadiazolidine-1,1,3-trione], under 7.00; for `N#CCc1ccc2cc(O)c(N3CC(=O)NS3(=O)=O)c(F)c2c1` [Compound 228, [8-fluoro-6-hydroxy-7-(1,1,4-trioxo-1λ^6,2,5-thiadiazolidin-2-yl)naphthalen-2-yl]acetonitrile], 7.00 to 8.00.
Turning to `COCc1ccc2cc(O)c(N3CC(=O)NS3(=O)=O)c(F)c2c1` [Compound 229, 5-[1-fluoro-3-hydroxy-7-(methoxymethyl)naphthalen-2-yl]-1λ^6,2,5-thiadiazolidine-1,1,3-trione], the pIC50 is 7.00 to 8.00.
For `CC1(COc2ccc3cc(O)c(N4CC(=O)NS4(=O)=O)c(F)c3c2)COC1` [Compound 230, 5-{1-fluoro-3-hydroxy-7-[(3-methyloxetan-3-yl)methoxy]naphthalen-2-yl}-1λ^6,2,5-thiadiazolidine-1,1,3-trione] the value was under 7.00; for `O=C1CN(c2c(O)c(Br)c3ccc(-c4ccn(S(=O)(=O)C5CC5)c4)cc3c2F)S(=O)(=O)N1` [Compound 231B, 5-{4-bromo-7-[1-(cyclopropanesulfonyl)-1H-pyrrol-3-yl]-1-fluoro-3-hydroxynaphthalen-2-yl}-1λ^6,2,5-thiadiazolidine-1,1,3-trione], 8.00 to 9.00; for `COc1ccc2cc(O)c(N3CC(=O)NS3(=O)=O)c(F)c2c1Cl` [Compound 234, 5-(8-chloro-1-fluoro-3-hydroxy-7-methoxynaphthalen-2-yl)-1λ^6,2,5-thiadiazolidine-1,1,3-trione], 7.00 to 8.00.
To `O=C1CN(c2c(O)cc3ccc(OCC4CC(F)(F)C4)cc3c2F)S(=O)(=O)N1` [Compound 235, 5-{7-[(3,3-difluorocyclobutyl)methoxy]-1-fluoro-3-hydroxynaphthalen-2-yl}-1λ^6,2,5-thiadiazolidine-1,1,3-trione] belongs over 9.00.
For `O=C1CN(c2c(O)cc3ccc(C4CC4)cc3c2F)S(=O)(=O)N1` [Compound 236, 5-(7-cyclopropyl-1-fluoro-3-hydroxynaphthalen-2-yl)-1λ^6,2,5-thiadiazolidine-1,1,3-trione] the value was under 7.00.
